Values belong to the compound of their own block, whether it stands above or below them.
What was measured:
human MCP = biological target: T1, human MCP (Homo sapiens, UniProt P28074+Q99436); experiment: Determination of IC50 values for MCP inhibitors (chymotrypsin-like or trypsin-like activity of MCP); assay type: biochemical; settings: for % Inhibition (1 μM): 1 μM inhibitor
T1 construct: Samples of human liver and brain obtained post-mortem were used for isolation and partial purification of MCP; from tissue; host or cells: human liver and brain, post-mortem
Protocol: Samples of human liver and brain obtained post-mortem were used for isolation and partial purification of MCP by ion-exchange chromatography, ammonium sulfate precipitation, and gel filtration (e.g., Driscoll and Goldberg, Proc. Natl. Acad. Sci. 86, 787-791 (1989); Yamamoto et al., Biochim, Biophys. Acta 882, 297-304 (1986). For either starting material, tissue was homogenized in 10 volumes of 20 mM Tris-HCl (pH 7.5) containing 20% glycerol. Following centrifugation at 40,000×g for 30 minutes, proteolytic activity of the chymotrypsin-like component of MCP could be detected in the supernatant (see below). The supernatant was fractionated on a DEAE-Sepharose Fast Flow column equilibrated in homogenization buffer. For each liter of supernatant, 250 ml of resin was used. Following sample loading, the column was washed with ^~ 10 volumes homogenization buffer, and proteins were eluted with a linear NaCl gradient of from 0 to 400 mM (21 for 250 ml resin). Fractions were assayed for MCP activity, and the active fractions were pooled and subjected to precipitation with (NH4)2 SO4 at 80% saturation. Precipitated proteins were collected by centrifugation, resuspended in homogenization buffer, and loaded on a Sephacryl S300HR column (500 ml resin volume) that had been standardized using bovine serum albumin (68 kDa). A single peak of MCP activity was eluted with a molecular weight of ^~ 650 kDa. This preparation was free of other measurable proteolytic activities and maintained its MCP activity upon storage at 4° C. for >6 months. This preparation was used for most of the experiments. Further fractionation of the preparation on an hydroxyapatite-Ultrogel column (Yamamoto et al., supra) yielded a more highly purified enzyme, which according to denaturing SDS-polyacrylamide gel electrophoresis was comprised of the expected >10 subunits ranging in Mr from 20 to 35 kDa.
The procedure for MPC isolation described above generated an enzyme complex whose proteolytic activities were latent, but which could be activated by addition of low concentrations (0.02-0.05%) of SDS (Yamamoto et al., supra). The chymotrypsin-like activity was assayed according to the following procedure: in 96 well microtiter plates, human MCP was diluted 4 to 10-fold in homogenization buffer containing 0.04% SDS. A calorimetric substrate MeOSuc-EVKM-para-nitroanilide (methoxysuccinyl-Glu-Val-Lys-Met-pNa), purchased from Bachem Bioscience Inc., King of Prussia, Pennsylvania was added to a final concentration of 100 μM from a stock solution of 10 mM in dimethylsulfoxide. Reaction volumes were 200 μl per well. After incubation for various periods of time at 37° C., the concentration of free pNa was determined on a Biotech EL-340 microplate reader, reading absorption at 490 nm. Protease activity was determined under conditions in which substrate hydrolysis increased linearly with time and the change in absorption was proportional to the concentration of free pNa. Alternatively, a fluorogenic substrate was used, methoxysuccinyl-Phe-Leu-Phe-amidomethylcoumarin (Enzyme Systems Products, Dublin, Calif.), and the change in fluorescence monitored at an excitation of 390 nm, and an emission at 460 nm.
The trypsin-like activity of human MCP was assayed as described above with the following modifications. Reactions were carried out in Tris-glycerol buffer (pH 9.5) supplemented with 1 mM 2-mercaptoethanol, and the substrate was a fluorogenic substrate, Benzyloxycarbonyl--Phe--Arg--AMC (100 μM).
After incubation for various periods of time at 37° C., the concentration of free AMC was determined on a Fluoroskan II spectrofluorimeter with an excitation filter of 390 nm and an emission filter of 460 nm. Protease activity was determined under conditions in which substrate hydrolysis increased linearly with time and the change in fluorescence was proportional to the concentration of free AMC. […]

[1] = tested on: unweighting atrophy of the soleus muscle; experiment: Inhibition of unweighting atrophy of the soleus muscle in juvenile rats (muscle protein content); assay type: in vivo, rat; settings: for Protein, End (day 3 of unweighting) / Effect (%), change in protein content during day 3 of unweighting: Table 2; for Protein, End (day 3 of unweighting): 24 hours after in situ soleus injection at day 2 of unweighting, mersalyl 200 nM aqueous; for Protein, End (day 3 of unweighting) / Protein, Treatment (unweighted muscle): MCP inhibitor 1 mM in DMSO; for Effect (%), change in protein content during day 3 of unweighting: End versus Start (estimated day 2 content); for Effect (%) on unweighted muscle protein / Protein, Treatment (unweighted muscle): Table 3; for Effect (%) on unweighted muscle protein: Treatment versus Vehicle contralateral muscle; for Protein, Treatment (unweighted muscle): treated soleus, contralateral muscle received vehicle, mersalyl 200 nM
Protocol: The effect of several inhibitors on the unweighting atrophy of the soleus muscle in juvenile rats was determined. See Tischler, M. E. (1990) Metabolism 39/7: 756-763 (hereinafter "Tischler--1990") for a general discussion of the procedure.
(§1) Juvenile female Sprague-Dawley rates (80-90 g) were tail-cast, hind limb suspended as in Jetspers, S. R. and Tischler, M. E., (1984) J. Appl. Physiol. 57: 1472-1479. The animal's hind limbs were elevated above the floor of the cage with each animal housed individually. Animals had free access to food and water, and were weighed at the time of suspension and at time of termination. During the suspension period the animals were checked daily to ensure that their toes were not touching the floor of the cage, and that there was no swelling of the tail due to the cast.
Each experiment began with the suspension of 20 rats which were randomly divided into 4 groups of 5 animals each. Group A was suspended for just 2 days and provided baseline data to approximate the soleus muscle size in other animals suspended for longer times. Average body weights for the groups at the outset of the study were compared and used as a correction factor for body size differences. […] See Tischler--1990. At 2 days after unweighting commenced, an aqueous solution of mersalyl (200 nM; 4 μl/100 g initial body wt) was injected into one soleus, as described previously. The contralateral muscle was injected with a similar volume of 0.9% saline ("Vehicle"). The animals were maintained under Innovar-vet (10 μl/100 g body wt) tranquilization during the in situ injection procedure. After the injections, the animals were suspended for an additional 24 hours and the soleus was removed. Groups C and D for each experiment were used for testing each of two different embodiments of the disclosed compounds.
(§2) Animals were treated as in group B, except that 1 mM MCP inhibitor, contained in dimethysulfoxide (DMSO), was injected into the soleus of one leg and DMSO only into the contralateral soleus. Thus each experiment consisted of two control groups and the testing of MCP inhibitors of the invention. The completion of five such experiments with different pairs of inhibitors provided for an "n" value of 10 for testing each MCP inhibitor and with each tested in two different shipments of animals.
(§3) After the animal was sacrificed, the soleus was excised, trimmed of fat and connective tissue, and carefully weighed. The muscle was then homogenized in 10% trichloroacetic acid (TCA) and the precipitated protein pelleted by centrifugation. The pellet was then washed once with 10% TCA and once with ethanol:ether (1:1). The final pellet was solubilized in 4 ml of 1N sodium hydroxide. The sample was then analyzed for protein content by the biuret procedure, using albumin as a standard.
(§4) The effect of MCP inhibitors on total muscle protein content was examined primarily by paired comparison with the untreated contralateral muscle. The ratio of contents was calculated and then analyzed statistically by analysis of variance ("ANOVA"). The left leg was always the treated leg so that the protein content ratios could be compared to the non-treated control animals as well. In this way, a significant difference can be shown by comparing the protein content of the two legs, as well as the relative effectiveness of the tested MCP inhibitors. A paired student test was also performed for the effect of each separate treatment. The non-treated control data also provided an estimate of protein content of day 2. This allowed approximation of the protein changes over the 24 hours of treatment for each of the Groups B, C, and D.

[2] = tested on: Ile113→Thr mutant SOD-1 in human 293 cells; experiment: SOD-1 levels in transiently transfected 293 cells (immunoblot); settings: 5 μM, 24 hours, FIG. 5
Protocol: The human kidney cell line designated 293 (human 293 cells or 293 cells)was obtained from the American Type Culture Collection (ATCC), 12301 Parklawn Drive, Rockville, Md., 20852 (ATCC #CRL 1573) and grown in Dulbecco's modified Eagle's medium with 4.6 g/L glucose, 10% heat-inactivated horse serum (Gibco/Life Technologies Inc. Gaithersburg, Md.). The human 293 cells were maintained at 37° C. in an atmosphere of 5% CO2. The 293 cells were transiently transfected using the calcium phosphate method (Chen, C. et al., Biotechniques 6: 632 (1988). The pCMV-113 SOD-1 expression vector was introduced into 293 cells and 24 hours later, the cells were incubated with either compound 34, compound 14, or compound 24, all at a concentration of 5 μM, for a duration of 24 hours. The known MCP and other protease inhibitory compounds were solubilized in dimethyl sulfoxide (DMSO). Other 293 cell cultures were incubated with an equal volume of DMSO or left in medium only as negative controls.
Approximately 48 hours prior to receiving test compounds, 5×10^5 293 cells were seeded in 36 mm dishes and maintained at 37° C. in an atmosphere of 5% CO2. Cells were incubated with MCP inhibitors (compound 34, 14 or 24) or with DMSO as a negative control for a duration of 24 hours. Cell lysates were prepared by lysing the cells in approximately 75 μl of phosphate-buffered saline (PBS) by freeze/thaw cycling. Protein concentrations of the cell lysates were determined using the BCA method (Pierce, Rockford, Ill.) and 2 to 2.5 μg of each sample was electrophoresed on a 4-20% polyacrylamide geol (Novex, San Diego, Calif.) using a Tris/glycine/SDS (25 mM Tris/192 mM glycine/0.1% SDS) buffer system. […] Stained bands corresponding to SOD-1 protein were quantitated using a DocuGel V image analysis system and RFLPscan software (Scanalytics, Billerica, Mass.). Levels of SOD-1 are expressed as units of induction relative to the negative control (i.e., units of experimental divided by units of control).

control soleus muscle = experiment: Effect of MCP inhibitors on control muscle protein content; assay type: in vivo, rat; settings: Table 1; treated soleus versus vehicle-injected contralateral muscle
Text: as §1, §2, §3
as §4, with “A paired student test was also performed for the effect of each separate treatment. The non-treated control data also provided an estimate of protein content of day 2. This allowed approximation of the protein changes over the 24 hours of treatment for each of the Groups B, C, and D.” left out

[3] = Table 5, first series, enzyme incubated with inhibitor 15 minutes at 37° C. prior to substrate
[4] = Table 5, second series (Examples 36-38), enzyme incubated with inhibitor 15 minutes at 37° C. prior to substrate

Compound: CC(C)C[C@@H](C=NNC(N)=O)NC(=O)[C@H](CCCNC(=N)N[N+](=O)[O-])NC(=O)C(CCCCCCCCC#N)C1CCCC1 (stereo partly drawn) [Compound 16, 10-cyano-2-cyclopentyl-decanoyl-N g-nitro-L-arginyl-L-leucinal semicarbazone]
IC50 (human MCP; [3]): 100 nM | Protein, End (day 3 of unweighting) [1]: 6.0 mg/muscle | Effect (%), change in protein content during day 3 of unweighting [1]: -5% | Effect (%) on unweighted muscle protein [1]: 0% | Protein, Treatment (unweighted muscle) [1]: 6.0 mg/muscle

Compound: CC(C)C[C@@H](C=O)NC(=O)[C@H](CCCNC(=N)N[N+](=O)[O-])NC(=O)C(CCCCCCCCN1C(=O)c2ccccc2C1=O)C1CCCC1 (stereo partly drawn) [Compound 24, 2-cyclopentyl-10-N-phthalimido-decanoyl-N^g-nitro-L-arginyl-L-leucinal]
IC50 (human MCP; [3]): 2 nM | SOD-1 levels compared to controls [2]: modestly elevated

Compound: COC(=O)CCCCCCCC(=O)N[C@@H](CCCN=C(N)NS(=O)(=O)c1c(C)cc(OC)c(C)c1C)C(=O)N[C@H](C=O)CC(C)C [Compound 34, Monomethylazelayl-N^g-(4-methoxy,2,3,6-trimethylbenzene-1-sulfonyl)-L-arginyl-L-leucinal]
IC50 (human MCP; [3]): 80 nM | Protein, Treatment (control muscle) (control soleus muscle): 6.3 mg/muscle | Protein, End (day 3 of unweighting) [1]: 6.6 mg/muscle | Effect (%), change in protein content during day 3 of unweighting [1]: +5% | Effect (%) on unweighted muscle protein [1]: 12% | Protein, Treatment (unweighted muscle) [1]: 6.6 mg/muscle | SOD-1 levels compared to controls [2]: modestly elevated

Compound: CC(C)C[C@@H](C=O)NC(=O)[C@H](CCCNC(=N)N[N+](=O)[O-])NC(=O)c1ccc2ccccc2c1 [Compound 37, 2-Naphthoyl-N^g-nitro-L-arginyl-L-leucinal]
IC50 (human MCP; [4]): 250 nM

Compound: CC(C)CC(NC(=O)[C@H](CCCNC(N)=N[N+](=O)[O-])NC(=O)C(CCCCCCCCC#N)C1CCCC1)B1OC(C)(C)C(C)(C)O1 (stereo partly drawn) [Example 40, 10-Cyano-2-cyclopentyl-decanoyl-N^g-nitro-L-arginyl-boroleucine pinacol ester]
IC50 (human MCP; Table 7): 6 nM | % Inhibition (1 μM) (human MCP; Table 7): 100%

Compound: N#CCCCCCCCCC(C(=O)N[C@@H](CCCNC(N)=N[N+](=O)[O-])C(=O)NC(Cc1ccccc1)C(=O)CF)C1CCCC1 (stereo partly drawn) [Example 42, 10-Cyano-2-cyclopentyl-decanoyl-N^g-nitro-L-arginyl-phenylalanine fluoromethylketone]
IC50 (human MCP; Table 7): > 1000 nM | % Inhibition (1 μM) (human MCP; Table 7): 15%

Compound: COC(CNC(=O)c1ccccc1OCC(=O)O)[CH2][Hg][OH] (stereo not drawn) [Mersalyl, reference compound]
Protein, End (day 3 of unweighting) [1]: 6.6 mg/muscle | Effect (%), change in protein content during day 3 of unweighting [1]: +3% | Effect (%) on unweighted muscle protein [1]: 14% | Protein, Treatment (unweighted muscle) [1]: 6.6 mg/muscle

Second part, the compound after the results:

IC50 (human MCP; [3]): > 100 nM
Compound: CCCC[C@@H](C=O)NC(=O)[C@H](CCCN=C(N)NS(=O)(=O)c1c(C)c(C)c2c(c1C)CCC(C)(C)O2)NC(=O)CCCCCCCC(=O)OC [Compound 30, Monomethylazelayl-N^g-(2,2,5,7,8-pentamethylchroman-6-sulfonyl)-L-arginyl-L-norleucinal]

IC50 (human MCP; [3]): 75 nM
Compound: COC(=O)CCCCCCCC(=O)N[C@@H](CCCN=C(N)NS(=O)(=O)c1ccc(C)cc1)C(=O)N[C@H](C=O)CC(C)C [Compound 31, Monomethylazelayl-N^g -(p-toluenesulfonyl)-L-arginyl-L-leucinal]

IC50 (human MCP; [3]): 220 nM
Compound: COC(=O)CCCCCCCC(=O)N[C@@H](CCCNC(N)=NS(=O)(=O)c1c(C)cc(OC)c(C)c1C)C(=O)N[C@H](C=NNC(N)=O)CC(C)C [Compound 32, Monomethylazelayl-N^g-(4-methoxy,2,3,6-trimethyl-1-sulfonyl)-L-arginyl-L-leucinal semicarbazone]

IC50 (human MCP; [3]): 700 nM
Compound: COC(=O)CCCCCCCC(=O)N[C@@H](CCCNC(N)=NS(=O)(=O)c1c(C)cc(OC)c(C)c1C)C(=O)N[C@H](C=NNC(N)=S)CC(C)C [Compound 33, Monomethylazelayl-N^g-(4-methoxy,2,3,6-trimethyl-1-sulfonyl)-L-arginyl-L-leucinal thiosemicarbazone]

IC50 (human MCP; [3]): 40 nM
Compound: COC(=O)CCCCCCCC(=O)N[C@@H](CCCNC(N)=NS(=O)(=O)c1c(C)cc(C)cc1C)C(=O)N[C@H](C=O)CC(C)C [Compound 35, Methoxyazelayl-N^g-(2,4,6-trimethylbenzene-1-sulfonyl)-L-arginyl-L-leucinal]

IC50 (human MCP; [4]): > 100 nM
Compound: Cc1c(C)c(S(=O)(=O)NC(N)=NCCC[C@H](NS(=O)(=O)CCCCCCC#N)C(=O)N[C@H](C=O)CC(C)C)c(C)c2c1OC(C)(C)CC2 [Compound 36, 6-Cyano-hexane-1-sulfonyl-N^g-(2,2,5,7,8-pentamethylchroman-6-sulfonyl)-L-arginyl-L-leucinal]

IC50 (human MCP; [3]): 130 nM
Compound: Monomethylazelayl-N^g -nitro-L-arginyl-L-phenylalaninal [Compound 27]

From US5990083A, “Multicatalytic protease inhibitors” (Cephalon, Inc., priority 1997, dated 1999)
